Data: patent US20170348269A1, “TREATMENT OF UREA CYCLE DISORDERS IN NEONATES AND INFANTS” (Horizon Therapeutics, LLC, priority 2016, published 2017)
Values joined by “and” are separate entries in the source; they are usually repeats but may differ in a detail not shown here. Identical values can stand only once.

Key:
Assay type in all cases: in vivo, human
[1] = tested on: ammonia in UCD patients; experiment: Open label fixed-sequence switch-over comparison of RAVICTI to NaPBA, 4 patients aged 2 months to 2 years
Text: While the U.S. approval of RAVICTI® was based on its evaluation in 6 clinical trials involving over 100 adult and pediatric UCD patients aged 2 months old and above, only 7 patients aged 2 months to 2 years were enrolled in these studies. […] PAA exposure, also assessed as 24-hour area under the curve, was very similar. However, the number of patients in this age group studied at the time of RAVICTI's approval was small and considerable patient-to-patient variability was observed.

[2] = tested on: blood ammonia in pediatric patients with UCDs; experiment: HPN-100-012 open-label fixed sequence switch-over study, blood ammonia control
Text: HPN-100-012, an open-label, fixed sequence, switch-over study of the safety, PK and efficacy of HPN-100 compared to NaPBA in patients with UCDs, with a 12-month safety extension part. […] After review of all the safety data by the DSMB, 8 additional subjects were enrolled in the study after the switch-over phase was completed. The primary efficacy endpoint was the 24-hour AUC (area under the curve) for blood ammonia on Day 1 compared with Day 10.

[3] = HPN-100-012 switch-over study, pharmacokinetics of HPN-100 and NaPBA in pediatric UCD patients; settings: HPN-100-012 (N = 15), TID with meals
Procedure: HPN-100-012, an open-label, fixed sequence, switch-over study of the safety, PK and efficacy of HPN-100 compared to NaPBA in patients with UCDs, with a 12-month safety extension part. The switch-over part of the study and the 12-month safety extension are complete. The switch-over part was conducted at 7 U.S. centers and enrolled 15 pediatric UCD patients between 29 days and <6 year of age, all of whom completed the study. After review of all the safety data by the DSMB, 8 additional subjects were enrolled in the study after the switch-over phase was completed. The primary efficacy endpoint was the 24-hour AUC (area under the curve) for blood ammonia on Day 1 compared with Day 10.
The pharmacokinetics of the short term studies can be summarized as follows. Mean exposure levels of HPN-100 metabolites PBA, PAA, and PAGN after doses of HPN-100 and NaPBA with meals (TID) in pediatric (29 days to 17 years of age) UCD patients in HPN-100-005 and HPN-100-012 studies are summarized below. The mean exposure to PBA, the parent metabolite, and mean exposure to PAGN, the terminal metabolite, show no systematic variation across age groups, while PAA exposure tended to decrease with increasing age, a finding consistent with those from population PK modeling which indicate that the rate of clearance/metabolism of PAA varies directly with body size. While systemic metabolite exposure, assessed as peak plasma concentration (Cmax) or AUC, is generally similar for HPN-100 and NaPBA, the minimum concentration (Cmin-ss) was higher—and/or percent-fluctuation less—for plasma PAGN, a finding consistent with slower gastrointestinal absorption of PBA when administered orally as HPN-100.

[4] = tested on: venous ammonia in pediatric patients with UCDs; experiment: Studies 4/4E and 5, uncontrolled open-label studies in children under 2 years of age
Procedure: Uncontrolled, open-label studies were conducted to assess monthly ammonia control and hyperammonemic crisis of RAVICTI® in pediatric patients with UCDs 2 months to less than 2 years of age (Study 4/4E, Study 5, and Study 6). Patients in Study 5 previously participated in Study 4/4E. A total of 17 pediatric patients with UCDs aged 2 months to less than 2 years participated in the studies.
A total of 7 patients with UCDs aged 2 months to less than 2 years participated in Studies 4/4E and 5. In these studies, there were 7, 6, 6, 6 and 3 pediatric patients who completed 1, 6, 9, 12 and 18 months, respectively (mean and median exposure of 15 and 17 months, respectively). Patients were converted from sodium phenylbutyrate to RAVICTI®. The dosage of RAVICTI® was calculated to deliver the same amount of PBA as the sodium phenylbutyrate dosage the patients were taking when they entered the study.
Patients received a mean RAVICTI® dose of 7.5 mL/m^2/day (8.2 g/m^2/day), with doses ranging from 3.3 to 12.3 mL/m^2/day (3.7 to 13.5 g/m^2/day). Patients were dosed three times a day (n=3) or four times a day (n=4).
Venous ammonia levels were monitored on days 1, 3 and 10 in Study 4 and at week 1 in Study 4E. Two patients had day 1 ammonia values of 122 micromol/L and 111 micromol/L respectively, neither had associated signs and symptoms of hyperammonemia.
During the extension period, venous ammonia levels were monitored monthly. Ammonia values across different laboratories were normalized (transformed) to a common normal pediatric range of 28 to 57 micromol/L for comparability. The mean venous ammonia values in pediatric patients at month 1, 3, 6, 9 and 12 were 58, 49, 34, 65, and 31 micromol/L during treatment with RAVICTI®, respectively.
Three patients reported a total of 3 hyperammonemic crises, as defined in Study 6. Hyperammonemic crises were precipitated by gastroenteritis, vomiting, infection or no precipitating event (one patient). There were 4 patients who had one venous ammonia level that exceeded 100 micromol/L which was not associated with a hyperammonemic crisis.

[5] = original scale, predefined non-inferiority upper margin 1.25
[6] = Studies 4/4E, 5 extension period, normalized to 28 to 57 micromol/L

PAA exposure assessed as 24-hour area under the curve, RAVICTI vs NaPBA [1]: very similar | Plasma PAA % Fluctuation ([3]; arithmetic mean): 2141% | Plasma PAA AUC0-24 ([3]; arithmetic mean): 1096 µg·h/mL | Plasma PAA CLss/F ([3]; arithmetic mean): 25538 mL/min | Plasma PAGN CLss/F ([3]; arithmetic mean): 10830 mL/min | Plasma PBA CLss/F ([3]; arithmetic mean): 22610 mL/min | Plasma PBA Cmin-ss ([3]; arithmetic mean): 750 ng/mL | Plasma PAA Cmax-ss ([3]; arithmetic mean (CV %)): 84700 ng/mL | Plasma PAA Cmin-ss ([3]; arithmetic mean (CV %)): 26100 ng/mL | Plasma PAGN Cmin-ss ([3]; arithmetic mean (CV %)): 19900 ng/mL
SMILES: O=C(CCCc1ccccc1)OCC(COC(=O)CCCc1ccccc1)OC(=O)CCCc1ccccc1 [HPN-100, benzenebutanoic acid, 1′,1″-(1,2,3-propanetriyl) ester]
mean ammonia exposure assessed at 24-hour area under the curve, RAVICTI vs NaPBA [1]: non-inferior | Mean blood ammonia at the 12-hour time point ([2]; HPN-100 Day 10, NaPBA Day 1, highest value for both treatments): 28.24 µmol/L | Mean blood ammonia at the 8-h time point ([2]; HPN-100 Day 10, lowest value on HPN-100): 23.20 µmol/L | 24-hour AUC for blood ammonia, HPN-100 vs NaPBA, upper 90% CI [2, 5]: 1.002 | 24-hour AUC for blood ammonia, HPN-100 vs NaPBA, upper 95% CI [2, 5]: 1.055 | ammonia AUC, median difference between treatments (HPN-100 vs NaPBA) ([2]; pediatric UCD patients 29 days to <6 years): -37.84 µmol·h/L | 24-hour AUC for blood ammonia (primary efficacy endpoint), HPN-100 compared to NaPBA ([2]; pediatric UCD patients aged 29 days to <6 years, Day 1 (NaPBA) vs Day 10 (HPN-100), non-inferiority upper margin 1.25): non-inferior | Blood ammonia levels postprandially at any given time point, HPN-100 (Day 10) vs NaPBA (Day 1) ([2]; postprandial): directionally lower | patients with one venous ammonia level exceeding 100 micromol/L not associated with a hyperammonemic crisis ([4]; Studies 4/4E, 5): 4 patients | total hyperammonemic crises ([4]; Studies 4/4E, 5, reported by three patients): 3 | mean venous ammonia, month 1 [4, 6]: 58 µmol/L | mean venous ammonia, month 3 [4, 6]: 49 µmol/L | mean venous ammonia, month 6 [4, 6]: 34 µmol/L | mean venous ammonia, month 9 [4, 6]: 65 µmol/L | mean venous ammonia, month 12 [4, 6]: 31 µmol/L | day 1 ammonia values of two individual patients ([4]; Studies 4/4E, no associated signs and symptoms of hyperammonemia, listed as RAVICTI®): 122 µmol/L and 111 µmol/L | patients with venous ammonia levels less than 100 micromol/L at day 10/week 1 ([4]; Studies 4/4E, of the 7 patients): six | day 10 ammonia value of the remaining patient ([4]; Study 4, asymptomatic): 168 µmol/L
